{
  "source": "patent US6114390A",
  "about": "“Amino acid derivatives, pharmaceutical compositions containing these compounds and processes for preparing them” (Karl Thomae GmbH, priority 1997, dated 2000)",
  "key": {"[1]": {"test_system": "NPY", "experiment": "In vivo NPY-antagonism, NPY-induced blood pressure effects in pithed rats", "conditions": "Rattus norvegicus, iv, 1 min, NPY 10 μg/kg i.v., diastolic blood pressure, read-out: pIC50 (in vivo NPY-antagonism) (converted)", "protocol": "After intubation of the trachea the animals are pithed by introducing a blunt needle through the eye into the spinal bone marrow channel. The animals are ventilated with oxygen-rich ambient air using a respiratory pump (20 strokes/minute). A cannula is inserted in the left carotid artery and the arterial blood pressure is measured using a pressure gauge (Braun Melsungen Combitrans) connected to a recording device. For injection purposes a catheter is placed in the left jugular vein through which heparin is administered (200 IU/kg, i.v.). After the blood pressure has been stabilised, the animals are given 2 bolus injections of NPY (10 μg/kg, i.v.) at intervals of 15 minutes. The average increase in diastolic blood pressure is taken as the reference value (=100%). The test substances are injected in increasing doses (4 to 6 doses) at intervals of 15 minutes. One minute after administration of the test substance, NPY is administered.\nThe antagonistic effect of the test substances is determined by plotting the percentage inhibition of the NPY-induced blood pressure effects against the logarithm of the concentration of active substance."}, "[2]": {"biological_target": "T1, rat Y4 receptor (Rattus norvegicus, UniProt Q63447)", "T1 construct": "expressed in transfected cells; host or cells: BHK", "T1 sequence (Q63447 whole entry)": "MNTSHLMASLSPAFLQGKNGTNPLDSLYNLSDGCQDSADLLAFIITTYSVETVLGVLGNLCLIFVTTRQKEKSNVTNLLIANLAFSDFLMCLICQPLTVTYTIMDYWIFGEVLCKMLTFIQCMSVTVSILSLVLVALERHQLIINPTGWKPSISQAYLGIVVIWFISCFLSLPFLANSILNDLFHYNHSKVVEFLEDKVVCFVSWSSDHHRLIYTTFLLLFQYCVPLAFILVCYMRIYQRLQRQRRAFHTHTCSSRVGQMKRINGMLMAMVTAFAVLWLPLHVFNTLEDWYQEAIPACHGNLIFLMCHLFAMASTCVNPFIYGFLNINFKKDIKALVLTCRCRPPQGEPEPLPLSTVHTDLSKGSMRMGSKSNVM", "experiment": "Receptor binding, BHK cells stably transfected with rat Y4 receptor", "conditions": "read-out: Affinity IC50, ratY4/BHK", "protocol": "BHK cells stably transfected with rat Y4 receptor: Cultivation and receptor binding was performed as described for hY1/BHK with exception of incubation medium (25 mM HEPES, 2.5 mM CaCl2, 1.0 mM MgCl2, pH 7.4) and final concentration of cell suspension 5×10^5 cells/ml. 24 h before receptor binding assay 1.0 mM IPTG was added for induction of expression. Incubation time for binding assay: 2 h."}, "[3]": {"biological_target": "T2, human Y2 receptor (Homo sapiens, UniProt P49146)", "T2 construct": "expressed in transfected cells; host or cells: BHK", "T2 sequence (P49146 1-381)": "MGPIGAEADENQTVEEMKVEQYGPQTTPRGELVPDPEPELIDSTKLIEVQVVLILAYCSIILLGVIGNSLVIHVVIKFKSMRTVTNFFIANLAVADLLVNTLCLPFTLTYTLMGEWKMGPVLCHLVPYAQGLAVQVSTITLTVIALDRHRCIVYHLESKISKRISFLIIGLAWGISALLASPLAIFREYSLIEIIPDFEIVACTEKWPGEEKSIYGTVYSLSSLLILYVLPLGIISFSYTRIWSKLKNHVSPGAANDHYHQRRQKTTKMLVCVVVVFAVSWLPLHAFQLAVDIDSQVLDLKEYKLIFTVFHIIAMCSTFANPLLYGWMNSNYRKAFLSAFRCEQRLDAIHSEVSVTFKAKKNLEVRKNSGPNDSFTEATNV", "experiment": "Receptor binding, BHK cells stably expressing the human Y2 receptor", "conditions": "read-out: Affinity IC50, humanY2/BHK", "protocol": "BHK cells stably expressing the human Y1 receptor: Cells were grown in DMEM with 4.5 g/l glucose, 10% FCS, 1% PENStrep, 1 mg/ml G-418, 1 mg/ml hygromycin B. 96h before receptor binding assay 1mM IPTG was added in order to induce expression. Confluent cells were removed with 0.06% EDTA/PBS (1 min incubation) and resuspended in 15 ml incubation buffer (MEM/25 mM HEPES +1% BSA, […], 0.1% bacitracin, 3.75 mM CaCl2). After 10 min centrifugation at RT (150×g), the pellet was resuspended in 50 ml incubation buffer, respun and resuspended in 30 ml incubation buffer. After counting, the cells were diluted to a final concentration of 2.5×10^5 cells/ml. Two hundred microliters of this cell suspension was incubated 3 h at RT with 30 pM [^125 I]NPY and increasing concentrations of test compounds in a total volume of […]. The incubation was stopped by 10 min centrifugation, 3000×g at 4° C. The pellet was resuspended with 0.25 ml PBS recentrifuged and the pellet measured in a γ-counter.\nBHK cells stably expressing the human Y2 receptor: Assay was performed essentially as described for human Y1 expressing BHK cells."}, "[4]": {"biological_target": "T3, humanY2 (Homo sapiens, UniProt P49146)", "T3 construct": "endoge- nously expressing Y1 and Y2 receptors; endogenous in cells; host or cells: SMS-KAN (neuroblastoma) cells", "T3 sequence (P49146 1-381)": "T2 sequence (P49146 1-381)", "experiment": "Receptor binding, SMS-KAN cells (Y2)", "conditions": "read-out: Affinity IC50, humanY2/SMS-KAN", "protocol": "SMS-KAN (neuroblastoma) cells: Cells were grown and receptor binding assay performed analogously as described hereinbefore under A and by Wieland et al. in Peptides 16, 1389-1394 (1995)."}, "[5]": {"biological_target": "T4, human Y5 receptor (Homo sapiens, UniProt Q15761)", "T4 construct": "expressed in transfected cells; host or cells: HEK 293", "T4 sequence (Q15761 1-445)": "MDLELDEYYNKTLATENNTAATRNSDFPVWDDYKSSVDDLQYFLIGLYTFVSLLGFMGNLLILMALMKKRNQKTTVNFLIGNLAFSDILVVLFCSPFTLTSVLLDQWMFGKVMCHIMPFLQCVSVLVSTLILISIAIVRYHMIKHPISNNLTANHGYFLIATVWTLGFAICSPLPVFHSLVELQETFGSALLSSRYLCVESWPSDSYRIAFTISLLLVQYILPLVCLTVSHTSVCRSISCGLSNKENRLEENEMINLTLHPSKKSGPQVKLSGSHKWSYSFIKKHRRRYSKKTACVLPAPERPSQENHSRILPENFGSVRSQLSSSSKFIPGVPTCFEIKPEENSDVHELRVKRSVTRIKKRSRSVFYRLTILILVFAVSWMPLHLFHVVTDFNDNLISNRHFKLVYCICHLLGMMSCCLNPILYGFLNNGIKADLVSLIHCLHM", "experiment": "Receptor binding, HEK 293 cells stably transfected with human Y5 receptor", "conditions": "read-out: Affinity IC50, humanY5/293", "protocol": "HEK 293 cells stably transfected with human Y5 receptor:\nCentrifugated cells were cultivated as described for BHK/Y1 cells except that a concentration of 0.7 mg/ml G-418 was used, no hygromycin added and no IPTG induction was necessary. The incubation buffer, cell cultivation and receptor binding was performed as described. Final concentration was 1.5×10^6 cells/ml and centrifugation stopped as described for Y1/BHK cells."}},
  "note": "pIC50: −log10 of the molar value.",
  "data": [
    {"molecule": "N=C(N)NCCC[C@@H](NC(=O)C(c1ccccc1)c1ccccc1)C(=O)NCc1ccc(CNC(N)=O)cc1", "note": "[Compound C]", "values": [
      {"measurement": "ED50", "setting": "[1]", "result": 0.00776, "unit": "µmol/kg"},
      {"measurement": "pIC50", "setting": "[2]", "result": "< 5.00"},
      {"measurement": "pIC50", "setting": "[3]", "result": "< 6.00"},
      {"measurement": "pIC50", "setting": "[4]", "result": "< 5.00"},
      {"measurement": "pIC50", "setting": "[5]", "result": "< 5.00"}
    ]}
  ]
}
